Measured values from publication PMC7515921, “MFSD7C switches mitochondrial ATP synthesis to thermogenesis in response to heme” (Nature Communications, 2020).

Target: T1, MFSD7C (major facilitator superfamily domain containing 7C; FLVCR2; SLC49A2) (Homo sapiens, UniProt Q9UPI3)
T1 construct: N-terminal domain (NTD), amino acids 1–84
T1 sequence (Q9UPI3 1-84): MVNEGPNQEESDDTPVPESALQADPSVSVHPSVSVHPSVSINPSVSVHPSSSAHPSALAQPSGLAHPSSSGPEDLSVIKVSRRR
Experiment: ITC with purified NTD; also heme absorbance-shift (Soret/Q band) and gel-filtration co-elution
Format: binding

C=CC1=C(C)C2=Cc3c(C=C)c(C)c4[n]3[Fe][n]3c(c(C)c(CCC(=O)O)c3=CC3=NC(=C4)C(C)=C3CCC(=O)O)=CC1=N2 [heme]
Kd: ~1 µM
